Entries after “also recorded” stand apart in the source; their conditions may differ.
How the values were obtained:
[1] = test system: MCF-10A 'normal' human breast cells; assay: microbubble attachment to cells, parallel plate flow chamber; format: cell-based; settings: MCF-10A 'normal' breast cells; 400×; FIGS. 5, 9-11
Description: (§1) To create biotinylated microbubbles, the synthesized biotin-bleomycin A5 ligand was conjugated to Targestar^B Targeted Ultrasound Contrast Agent (Targeson). Four hundred microliters of Coupling Reagent (Targeson) were added to 1.5 mL of conjugated Targestar^B microbubbles and incubated for 20 min at room temperature, with gentle agitation every 5 min. The product was divided into two syringes, rinsed with 1.75 mL of Infusion Buffer, and then centrifuged for 3 min at 400×g (10° C.). The infranatant was then drained to 1 mL. Fifty μL of biotinylated bleomycin A5 was added to one of the vials and both were incubated at room temperature for 20 min with gentle agitation every 5 min. To each sample was added 1.75 mL of Infusion Buffer before centrifugation for 3 min at 400×g (10° C.). This solution was then drained to 1.0 mL before recovery of the supernatant and repetition of the previous step. Finally, the supernatant was resuspended in Infusion Buffer to a final volume of 2.0 mL.
Attachment of the biotinylated microbubble to the cultured MCF-7 breast cancer cells was imaged using an inverted microscope Zeiss Axiovert 200M fitted with an AxioCam MRm camera. Adherent cancer cells on glass cover slips were assembled into a parallel plate flow chamber (Bioptechs FCS2, Micro-Environmental Systems) with a constant temperature maintained at 37° C. […]

[2] = test system: MCF-7 human breast carcinoma cells; assay: as above; format: cell-based; settings: 400×
Description: MCF-7 human breast carcinoma cells (ATCC, Manassas, Va.) were grown on sterile glass cover slips (40 mm) and incubated at 37° C. until they reached 40-60% confluency in a 5% fetal bovine serum/RPMI1640 medium solution.
as §1
Attachment of the biotinylated microbubble to the cultured MCF-7 breast cancer cells was imaged using an inverted microscope Zeiss Axiovert 200M fitted with an AxioCam MRm camera. Adherent cancer cells on glass cover slips were assembled into a parallel plate flow chamber (Bioptechs FCS2, Micro-Environmental Systems) with a constant temperature maintained at 37° C. The prepared solution of biotinylated microbubbles was introduced into the parallel plate flow chamber via ⅛-inch diameter tubing (Silastic) at a controlled rate of 0.01 mL/min using an adjustable infusion-withdrawal syringe pump (Harvard Apparatus, Holliston, Mass.). A negative control experiment was performed using a preparation of Targestar^B microbubbles without any added biotin-bleomycin A5 ligand. ‘Normal’ human breast MCF-10A cells were used as well for comparison purposes. […]

Row | Substance | Targestar B microbubble attachment to cells (microscopy, in words) [1] | Targestar B microbubble attachment to cells (microscopy, in words) ([2]; FIGS. 3, 4, 6-8, listed as biotinylated BLM A5) | Targestar B microbubble attachment to cells (microscopy, in words) ([2]; FIGS. 3, 4, 6-8, listed as biotinylated bleomycin) | Targestar B microbubble attachment to cells (microscopy, in words) ([2]; FIGS. 3, 4, 6-8)
1 | biotinylated bleomycin A5 [Biotinylated BLM A5] | attachment was not observed | selective attachment | did promote attachment | –
2 | biotinylated deglycobleomycin A5 | does not promote Targestar B microbubble attachment; also recorded: lack of attachment | – | – | does not promote Targestar B microbubble attachment; also recorded: did not reveal the presence of microbubbles attached

Source: patent publication US20110293530A1, “Methods and Compositions for Using Bleomycin-Derivatized Microbubbles” (ARIZONIA BOARD OF REGENTS, priority 2008, published 2011)
